Laboratory results from article PMC3518039 (Journal of medicinal chemistry, 2012).

Legend:
Fusarium solani Cutinase = Fusarium solani Cutinase (Fusarium vanettenii, UniProt P00590); type: biochemical, Fusarium solani pisi
[1] = molecular target: Mycobacterium tuberculosis Rv0183 (monoglyceride lipase) (Mycobacterium tuberculosis, UniProt O07427); type: biochemical
[2] = molecular target: Mycobacterium tuberculosis LipY (triacylglycerol lipase) (Mycobacterium tuberculosis, UniProt I6Y2J4); type: biochemical
LipY = molecular target: T1, LipY (Mycobacterium tuberculosis, UniProt I6Y2J4); type: binding
T1 sequence (I6Y2J4 1-437): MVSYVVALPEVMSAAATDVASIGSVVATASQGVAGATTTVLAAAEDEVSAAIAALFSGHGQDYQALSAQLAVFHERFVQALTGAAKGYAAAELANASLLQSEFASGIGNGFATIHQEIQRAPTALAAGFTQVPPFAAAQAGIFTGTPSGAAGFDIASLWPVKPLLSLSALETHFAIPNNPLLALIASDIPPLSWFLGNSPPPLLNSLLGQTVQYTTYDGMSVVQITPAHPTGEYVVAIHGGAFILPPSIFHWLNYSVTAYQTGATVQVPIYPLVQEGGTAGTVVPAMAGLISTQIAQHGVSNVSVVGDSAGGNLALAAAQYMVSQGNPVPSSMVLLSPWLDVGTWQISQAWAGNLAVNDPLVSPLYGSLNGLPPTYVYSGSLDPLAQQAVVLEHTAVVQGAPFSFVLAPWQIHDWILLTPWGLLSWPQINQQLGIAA

Fusarium solani Cutinase, sequence (P00590 17-230): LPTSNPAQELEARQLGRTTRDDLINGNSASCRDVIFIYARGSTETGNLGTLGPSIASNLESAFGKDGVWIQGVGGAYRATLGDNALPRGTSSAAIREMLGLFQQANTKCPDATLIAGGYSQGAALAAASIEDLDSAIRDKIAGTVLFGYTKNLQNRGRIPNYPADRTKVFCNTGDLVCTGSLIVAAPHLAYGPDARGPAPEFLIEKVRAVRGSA
Mycobacterium tuberculosis Rv0183 (monoglyceride lipase), sequence (O07427 whole entry, looked up): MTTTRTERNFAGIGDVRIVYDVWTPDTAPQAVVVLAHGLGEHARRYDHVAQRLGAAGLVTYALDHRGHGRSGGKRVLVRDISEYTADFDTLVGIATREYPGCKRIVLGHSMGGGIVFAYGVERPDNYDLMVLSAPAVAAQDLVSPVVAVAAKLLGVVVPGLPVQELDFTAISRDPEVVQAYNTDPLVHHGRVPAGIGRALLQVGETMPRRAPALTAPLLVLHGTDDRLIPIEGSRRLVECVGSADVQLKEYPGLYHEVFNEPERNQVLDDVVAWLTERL

CCCCCCCCCCCCCCCCCCC1CCP(=O)(OC)OC(C)=C1C(=O)OC (racemic) [10(β), (±) Methyl 2-methoxy-7-methyl-5-octadecyl-2,3,4,5-tetrahydro-1,2-oxaphosphepine-6-carboxylate 2-oxide]
DI (Diastereoselectivity Index between trans-(α) and cis-(β) isomers), Cutinase (Fusarium solani Cutinase): 72.1% | DI (Diastereoselectivity Index between trans-(α) and cis-(β) isomers), Rv0183 [1]: > 93.0% | DI (Diastereoselectivity Index between trans-(α) and cis-(β) isomers), LipY [2]: 81.3%

CCCCCCCCCCCCC1CCP(=O)(OC)OC(C)=C1C(=O)OC (racemic) [8(β), (±) Methyl 5-dodecyl-2-methoxy-7-methyl-2,3,4,5-tetrahydro-1,2-oxaphosphepine-6-carboxylate 2-oxide]
DI (Diastereoselectivity Index between trans-(α) and cis-(β) isomers), Cutinase (Fusarium solani Cutinase): 29.0% | DI (Diastereoselectivity Index between trans-(α) and cis-(β) isomers), Rv0183 [1]: 36.3% | DI (Diastereoselectivity Index between trans-(α) and cis-(β) isomers), LipY [2]: 28.0%

CCCCCC1CCP(=O)(OC)OC(C)=C1C(=O)OC (racemic) [6(α), (±) Methyl 2-methoxy-7-methyl-5-pentyl-2,3,4,5-tetrahydro-1,2-oxaphosphepine-6-carboxylate 2-oxide]
DI (Diastereoselectivity Index between trans-(α) and cis-(β) isomers), Cutinase (Fusarium solani Cutinase): 89.7% | DI (Diastereoselectivity Index between trans-(α) and cis-(β) isomers), Rv0183 [1]: 16.7% | xI50 (inhibitor molar excess leading to 50% lipase inhibition), LipY [2]: > 100

CCCCCCCCCCC1CCP(=O)(OC)OC(C)=C1C(=O)OC (racemic) [Compound 7(β), (±) Methyl 5-decyl-2-methoxy-7-methyl-2,3,4,5-tetrahydro-1,2-oxaphosphepine-6-carboxylate 2-oxide]
DI (Diastereoselectivity Index between trans-(α) and cis-(β) isomers), Cutinase (Fusarium solani Cutinase): 76.2% | DI (Diastereoselectivity Index between trans-(α) and cis-(β) isomers), Rv0183 [1]: 51.9% | half-inactivation time (t1/2), Rv0183 [1]: 86.4 s | residual lipase activity (plateau), Rv0183 [1]: around 6.0% | DI (Diastereoselectivity Index between trans-(α) and cis-(β) isomers), LipY [2]: 80.3%

CCCCCCCCCCCCCCCCOP1(=O)CCCC(C(=O)OC)=C(C)O1 (stereo not shown) [Compound 11, Methyl 7-methyl-2-(hexadecyloxy)-2,3,4,5-tetrahydro-1,2-oxaphosphepine-6-carboxylate 2-oxide]
Mass modifications (inhibited minus native lipase), LipY (LipY): +443.8 Da | half-inactivation time (t1/2), LipY [2]: 9.6 s

CCCCCCCCCCCCC1CCP(=O)(OC)OC(C)=C1C(=O)OC (racemic) [8(α), (±) Methyl 5-dodecyl-2-methoxy-7-methyl-2,3,4,5-tetrahydro-1,2-oxaphosphepine-6-carboxylate 2-oxide]
DI (Diastereoselectivity Index between trans-(α) and cis-(β) isomers), Cutinase (Fusarium solani Cutinase): 29.0% | DI (Diastereoselectivity Index between trans-(α) and cis-(β) isomers), Rv0183 [1]: 36.3% | DI (Diastereoselectivity Index between trans-(α) and cis-(β) isomers), LipY [2]: 28.0%

CO[P@]1(=O)OC[C@H]2COC(=O)C2=C(C)O1 [Compound 1, Cyclophostin]
half-inactivation time (t1/2), Cutinase (Fusarium solani Cutinase): 10.8 s | residual lipase activity (plateau), Cutinase (Fusarium solani Cutinase): around 6.0% | xI50 (inhibitor molar excess leading to 50% lipase inhibition), LipY [2]: > 100

CCCCCCCCCCCCCCCCC1CCP(=O)(OC)OC(C)=C1C(=O)OC (racemic) [9(α), (±) Methyl 5-hexadecyl-2-methoxy-7-methyl-2,3,4,5-tetrahydro-1,2-oxaphosphepine - 6-carboxylate 2-oxide]
DI (Diastereoselectivity Index between trans-(α) and cis-(β) isomers), Cutinase (Fusarium solani Cutinase): 27.2% | DI (Diastereoselectivity Index between trans-(α) and cis-(β) isomers), Rv0183 [1]: > 97.0% | DI (Diastereoselectivity Index between trans-(α) and cis-(β) isomers), LipY [2]: 70.5%

CCCCCCCCCCCCCCCCCCC1CCP(=O)(OC)OC(C)=C1C(=O)OC (racemic) [10(α), (±) Methyl 2-methoxy-7-methyl-5-octadecyl-2,3,4,5-tetrahydro-1,2-oxaphosphepine-6-carboxylate 2-oxide]
DI (Diastereoselectivity Index between trans-(α) and cis-(β) isomers), Cutinase (Fusarium solani Cutinase): 72.1% | DI (Diastereoselectivity Index between trans-(α) and cis-(β) isomers), Rv0183 [1]: > 93.0% | DI (Diastereoselectivity Index between trans-(α) and cis-(β) isomers), LipY [2]: 81.3%

CCCCCCCCCCCCCCCCC1CCP(=O)(OC)OC(C)=C1C(=O)OC (racemic) [9(β), (±) Methyl 5-hexadecyl-2-methoxy-7-methyl-2,3,4,5-tetrahydro-1,2-oxaphosphepine - 6-carboxylate 2-oxide]
DI (Diastereoselectivity Index between trans-(α) and cis-(β) isomers), Cutinase (Fusarium solani Cutinase): 27.2% | DI (Diastereoselectivity Index between trans-(α) and cis-(β) isomers), Rv0183 [1]: > 97.0% | DI (Diastereoselectivity Index between trans-(α) and cis-(β) isomers), LipY [2]: 70.5%

CCCCCCCCCCC1CCP(=O)(OC)OC(C)=C1C(=O)OC (racemic) [7(α), (±) Methyl 5-decyl-2-methoxy-7-methyl-2,3,4,5-tetrahydro-1,2-oxaphosphepine-6-carboxylate 2-oxide]
DI (Diastereoselectivity Index between trans-(α) and cis-(β) isomers), Cutinase (Fusarium solani Cutinase): 76.2% | DI (Diastereoselectivity Index between trans-(α) and cis-(β) isomers), Rv0183 [1]: 51.9% | DI (Diastereoselectivity Index between trans-(α) and cis-(β) isomers), LipY [2]: 80.3%

CCCCCC1CCP(=O)(OC)OC(C)=C1C(=O)OC (racemic) [6(β), (±) Methyl 2-methoxy-7-methyl-5-pentyl-2,3,4,5-tetrahydro-1,2-oxaphosphepine-6-carboxylate 2-oxide]
DI (Diastereoselectivity Index between trans-(α) and cis-(β) isomers), Cutinase (Fusarium solani Cutinase): 89.7% | DI (Diastereoselectivity Index between trans-(α) and cis-(β) isomers), Rv0183 [1]: 16.7% | xI50 (inhibitor molar excess leading to 50% lipase inhibition), LipY [2]: > 100
